Measured values as given in ChEMBL document CHEMBL4371004, “A-C Estrogens as Potent and Selective Estrogen Receptor-Beta Agonists (SERBAs) to Enhance Memory Consolidation under Low-Estrogen Conditions” (J Med Chem, 2018).
Values belong to the molecule of their own block, whether it stands above or below them.

Key:
Estrogen receptor [1] = target: T1, Estrogen receptor (Homo sapiens, UniProt P03372)
T1 sequence (P03372 whole entry): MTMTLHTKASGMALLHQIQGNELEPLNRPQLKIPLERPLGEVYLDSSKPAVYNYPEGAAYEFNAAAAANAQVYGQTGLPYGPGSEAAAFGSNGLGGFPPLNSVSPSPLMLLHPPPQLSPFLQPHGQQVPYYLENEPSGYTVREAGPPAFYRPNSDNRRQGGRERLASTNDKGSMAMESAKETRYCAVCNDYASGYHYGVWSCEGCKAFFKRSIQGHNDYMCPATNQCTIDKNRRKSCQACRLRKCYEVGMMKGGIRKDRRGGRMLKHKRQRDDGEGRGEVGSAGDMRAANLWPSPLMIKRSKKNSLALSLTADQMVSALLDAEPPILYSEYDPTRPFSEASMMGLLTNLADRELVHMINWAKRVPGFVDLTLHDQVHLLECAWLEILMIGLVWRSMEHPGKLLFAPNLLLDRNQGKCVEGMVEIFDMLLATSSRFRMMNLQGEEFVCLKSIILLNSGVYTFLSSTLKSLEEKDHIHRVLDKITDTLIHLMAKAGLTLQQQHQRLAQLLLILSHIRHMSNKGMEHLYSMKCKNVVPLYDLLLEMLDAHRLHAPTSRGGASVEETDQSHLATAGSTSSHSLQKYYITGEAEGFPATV

Estrogen receptor [2] = target: T1, Estrogen receptor; remark: listed apart in the source
Description: Agonist activity at estrogen receptor alpha (unknown origin) after 22 hrs by cell-based luciferase reporter gene assay

Estrogen receptor beta [3] = target: T2, Estrogen receptor beta (Homo sapiens, UniProt Q92731)
T2 sequence (Q92731 whole entry): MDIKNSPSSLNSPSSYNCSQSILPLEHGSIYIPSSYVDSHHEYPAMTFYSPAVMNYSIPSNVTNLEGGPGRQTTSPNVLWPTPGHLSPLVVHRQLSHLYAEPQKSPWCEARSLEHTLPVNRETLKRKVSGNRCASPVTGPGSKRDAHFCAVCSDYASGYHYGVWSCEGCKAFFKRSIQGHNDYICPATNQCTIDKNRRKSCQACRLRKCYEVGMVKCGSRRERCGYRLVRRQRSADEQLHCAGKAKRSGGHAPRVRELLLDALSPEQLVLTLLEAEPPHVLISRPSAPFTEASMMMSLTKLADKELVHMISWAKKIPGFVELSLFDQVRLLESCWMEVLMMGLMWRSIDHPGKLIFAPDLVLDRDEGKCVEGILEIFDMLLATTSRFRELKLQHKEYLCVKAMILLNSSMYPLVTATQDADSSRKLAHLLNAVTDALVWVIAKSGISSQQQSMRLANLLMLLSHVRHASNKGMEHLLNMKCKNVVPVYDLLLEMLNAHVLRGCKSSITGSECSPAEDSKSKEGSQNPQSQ

Estrogen receptor beta [4] = target: T2, Estrogen receptor beta; remark: listed apart in the source
Mus musculus [5] = assay: Memory enhancement effect in C57BL/6 mouse assessed as time spent with moved object at 0.05 mg/kg, ip by novel object recognition test; type: functional
Mus musculus [6] = assay: Memory enhancement effect in C57BL/6 mouse assessed as time spent with novel object at 0.05 mg/kg, po administered via gavage by novel object recognition test; type: functional
Mus musculus [7] = assay: Memory enhancement effect in C57BL/6 mouse assessed as time spent with moved object at 0.05 mg/kg, po administered via gavage by object recognition test; type: functional
Mus musculus [8] = assay: Memory enhancement effect in C57BL/6 mouse assessed as time spent with novel object at 10 pg administered as dorsal hippocampal infusion by novel object recognition test; type: functional
Mus musculus [9] = assay: Memory enhancement effect in C57BL/6 mouse assessed as time spent with moved object at 10 pg administered as dorsal hippocampal infusion by novel object recognition test; type: functional
Mus musculus [10] = assay: Memory enhancement effect in C57BL/6 mouse assessed as time spent with novel object at 0.05 mg/kg, ip by novel object recognition test; type: functional

Structure (SMILES): CC1CCC(c2ccc(O)cc2)CC1 (stereo not drawn)
- EC50 (Estrogen receptor [1]): > 10 µM
- EC50 (Estrogen receptor [2]): > 10 µM

Structure (SMILES): C=C1CCC(c2ccc(O)c(C=O)c2)CC1
- EC50 (Estrogen receptor beta [3]): 21 µM

Structure (SMILES): Oc1ccc([C@H]2CC[C@H](O)CC2)cc1
- EC50 (Estrogen receptor beta [3]): 7.52 µM

Structure (SMILES): OCC=C1CCC(c2ccc(O)cc2)CC1 (racemic)
- EC50 (Estrogen receptor beta [4]): 0.68 µM

Structure (SMILES): OCCC1CCC(c2ccc(O)cc2)CC1 (stereo not drawn)
- EC50 (Estrogen receptor [1]): > 10 µM
- EC50 (Estrogen receptor [2]): > 50 µM

Structure (SMILES): N#CC(Cc1ccc(O)cc1)c1ccc(O)cc1 (stereo not drawn) [DIARYLPROPIONITRILE]
- Time (Mus musculus [5]): 3.2 s
- Time (Mus musculus [6]): 3.89 s
- Time (Mus musculus [7]): 2.76 s
- Time (Mus musculus [8]): 2.35 s
- Time (Mus musculus [9]): 4.5 s
- Time (Mus musculus [10]): 3.52 s

Structure (SMILES): C=C1CCC(c2ccc(O)cc2)CC1
- EC50 (Estrogen receptor [1]): > 10 µM
- EC50 (Estrogen receptor [2]): > 10 µM

Structure (SMILES): O=C1CCC(c2ccc(O)cc2)CC1
- EC50 (Estrogen receptor beta [3]): 19 µM

Structure (SMILES): Oc1ccc([C@]23CC[C@H](CC2)CO3)cc1
- EC50 (Estrogen receptor beta [3]): 0.25 µM

Now from value to molecule:

- EC50 (Estrogen receptor beta [3]): 6.29 µM
Structure (SMILES): C[C@]1(O)CC[C@@H](c2ccc(O)cc2)CC1

- EC50 (Estrogen receptor beta [3]): 0.225 µM
Structure (SMILES): C=C1CCC(c2ccc(O)c(/C=N/O)c2)CC1

- EC50 (Estrogen receptor beta [3]): 2.7 µM
Structure (SMILES): OC[C@]1(O)CC[C@H](c2ccc(O)cc2)CC1

- EC50 (Estrogen receptor beta [4]): 1.57 µM
Structure (SMILES): ON=C1CCC(c2ccc(O)cc2)CC1 (stereo not drawn)

- EC50 (Estrogen receptor [1]): > 10 µM
- EC50 (Estrogen receptor [2]): > 20 µM
Structure (SMILES): OCC1CC=C(c2ccc(O)cc2)CC1 (racemic)
